Measured values as given in US20250345339A1, “DOSES AND REGIMENS OF HER2 INHIBITORS” (IAMBIC THERAPEUTICS, INC., priority 2024, published 2025).
Entries after “also recorded” stand apart in the source; their conditions may differ. Each block holds one compound with its values, some of them ahead of it.

Assays:
wtERBB2 = wtERBB2 (Homo sapiens (Human), UniProt P04626); test: HotSpot radiometric kinase activity assay, HER2 WT; assay type: biochemical
Method: (§1) The purpose of the wtERBB2, ERBB2-A775_G776insYVMA (ERBB2YVMA), wtEGFR biochemical assay was to evaluate the inhibition (% inhibition and IC50 values) of the small molecule inhibitors by using the “HotSpot” radiometric kinase activity assay. HotSpot assays monitor the […] of kinase substrate by the radioactive gamma phosphate of adenosine triphosphate (33P-ATP) during biochemical reactions. HotSpot assays was performed in steps upon completion of the kinase reaction: deposition of a reaction mixture aliquot onto P81 ion exchange paper, extensive washing of the aforementioned P81 paper using phosphoric acid to remove unbound radiolabeled 33P-ATP from the P81 paper, and finally visualization and quantification of the dried P81 paper utilizing a phosphoimager. […] Typical reaction solutions (10 μL final reaction volume) contained the following buffer conditions: 20 mM Hepes (pH 7.5), 10 mM MgCl2, 1 mM EGTA, 0.01% Brij35, 0.02 mg/mL BSA, 0.1 mM Na3VO4, 2 mM DTT, 1% DMSO. The assay was primed by preparing a fresh 0.2 mg/mL solution of pEY (Sigma Cat: P7244) substrate in the reaction buffer and supplementing that solution with […] of MnCl2 as substrate cofactor (Sigma Cat: M9522). The kinase of interest was then added to the solution at the appropriate concentration (30 nM wtERBB2 from, or 20 nM ERBB2YVMA, or 4 nM wtEGFR) and gently mixed prior to delivery of compound in 100% DMSO by acoustic dispensing (Beckman Echo550). Compound, Kinase, and substrate were allowed to incubate for 20 minutes at room temperature prior to the initiation of the reaction by addition of 33P-ATP (PerkinElmer Cat: NEG602, final conc 10 μM). […] IC50 determinations were made from a plot of kinase activity as a function of inhibitor concentration fit to the 4-parameter IC50 equation with the enzyme concentration held constant using GraphPad Prism (San Diego).

wtEGFR = wtEGFR (Homo sapiens (Human), UniProt P00533); test: HotSpot radiometric kinase activity assay, EGFR WT; assay type: biochemical
Method: as §1

ERBB2-A775_G776insYVMA = ERBB2-A775_G776insYVMA (Homo sapiens (Human), UniProt P04626, INS775YVMA); test: HotSpot radiometric kinase activity assay, HER2 YVMA; assay type: biochemical
Method: as §1

EGFR = EGFR (Homo sapiens (Human), UniProt P00533); test: Enzyme inactivation kinetics, EGFR; assay type: biochemical; conditions: Table 23
in vivo = conditions: mouse, tumor/plasma
[1] = system: BT-474 breast cancer cell line; test: BT-474 xenograft tumor growth inhibition; assay type: in vivo, mouse; conditions: clinical reference compounds
Method: The tumor cells were routinely sub-cultured after confluence by trypsin-EDTA treatment, not to exceed 4-5 passages. The cells growing in an exponential growth phase were harvested and counted for tumor inoculation.
Tumor size and body weight measurement was conducted twice weekly.

[2] = system: NCI-N87-luciferase gastric cancer cell line; test: Intracranial NCI-N87-luciferase tumor model; conditions: for Tumor Growth Inhibition: intracranial NCI-N87, 100 mg/kg QD
From the text: The dosing duration was 37 days, started 12 days after cell inoculation. The dosing Day 1 was Day 12 post cell inoculation.
The total bioluminescent signals (photons/s) emitted from the brains after luciferin injection were used as an indicator of tumor growth and antitumor activity.

HCC1954 = HCC1954 xenograft tumor growth inhibition; assay type: in vivo, mouse
Method: HCC1954 cells were thawed and cultured in vitro, and the HCC1954 cells were harvested for in vivo inoculation. After one week of acclimation, 16 female 6-8 weeks-old mice were used. After inoculation, the tumor volume and body weight of the mice were measured three times per week. When the average tumor volume reaches about 200 mm^3, mice were randomly grouped into 2 groups according to the tumor volume and body weight. Test drugs were administrated immediately afterward. Tumor volume and body weight measurements were taken twice a week. At the end of the study, tumor and plasma samples were collected. The mouse grouping and test material treatment for tumor growth inhibition is listed Table 7. Tumor size and body weight measurement were conducted twice weekly. At the end of study, Group 1 and Group 2 were split into 2 sub-groups, dosed and samples collected as described Table 8. At the end of treatment, tumor samples were collected for pharmacodynamic (PD) analysis.

MDAMB453 = MDAMB453 breast cancer model; conditions: 100 mg/kg PO daily for 14 days
KYSE410 = KYSE410 tumor model (HER2+ and KRAS G12C); conditions: Compound 5 at 250 mg/kg
BaF3 P95Her2 = conditions: 100 mg/kg PO daily for 20 days
JIMT-1 = JIMT-1 breast tumor model; conditions: 20/15 mg/kg PO daily for 9 then 12 days

wtERBB2, sequence (P04626 23-1255): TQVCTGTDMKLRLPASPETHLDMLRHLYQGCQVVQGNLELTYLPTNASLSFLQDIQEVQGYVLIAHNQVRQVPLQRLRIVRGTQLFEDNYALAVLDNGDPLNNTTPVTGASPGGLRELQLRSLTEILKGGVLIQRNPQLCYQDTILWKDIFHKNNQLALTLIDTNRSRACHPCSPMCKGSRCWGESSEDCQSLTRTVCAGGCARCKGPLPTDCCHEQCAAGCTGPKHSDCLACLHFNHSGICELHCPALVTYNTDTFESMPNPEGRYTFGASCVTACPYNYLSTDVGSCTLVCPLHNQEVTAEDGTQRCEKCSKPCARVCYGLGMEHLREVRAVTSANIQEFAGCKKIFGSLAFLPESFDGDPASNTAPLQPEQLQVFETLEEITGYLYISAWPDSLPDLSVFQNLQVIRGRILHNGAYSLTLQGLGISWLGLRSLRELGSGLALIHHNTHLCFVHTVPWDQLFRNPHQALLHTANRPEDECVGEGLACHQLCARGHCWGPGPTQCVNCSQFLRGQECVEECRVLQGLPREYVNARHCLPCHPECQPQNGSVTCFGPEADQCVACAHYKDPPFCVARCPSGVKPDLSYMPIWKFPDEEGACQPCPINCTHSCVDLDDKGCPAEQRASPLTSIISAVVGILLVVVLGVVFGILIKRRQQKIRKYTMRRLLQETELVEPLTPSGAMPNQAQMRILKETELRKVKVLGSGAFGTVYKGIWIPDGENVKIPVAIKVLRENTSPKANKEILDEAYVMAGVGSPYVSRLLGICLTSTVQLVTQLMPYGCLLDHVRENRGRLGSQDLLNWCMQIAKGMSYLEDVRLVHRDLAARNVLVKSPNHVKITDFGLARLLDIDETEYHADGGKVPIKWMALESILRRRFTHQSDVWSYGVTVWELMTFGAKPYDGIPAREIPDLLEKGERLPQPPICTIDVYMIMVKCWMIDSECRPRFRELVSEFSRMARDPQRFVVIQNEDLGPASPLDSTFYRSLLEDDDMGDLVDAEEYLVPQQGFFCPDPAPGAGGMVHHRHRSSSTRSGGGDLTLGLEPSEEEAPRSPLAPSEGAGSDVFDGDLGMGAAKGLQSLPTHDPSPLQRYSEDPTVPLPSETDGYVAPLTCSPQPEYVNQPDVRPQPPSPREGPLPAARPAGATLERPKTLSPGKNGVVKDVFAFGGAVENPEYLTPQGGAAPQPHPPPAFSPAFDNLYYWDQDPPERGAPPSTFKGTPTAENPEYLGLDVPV
EGFR, sequence (P00533 25-1210): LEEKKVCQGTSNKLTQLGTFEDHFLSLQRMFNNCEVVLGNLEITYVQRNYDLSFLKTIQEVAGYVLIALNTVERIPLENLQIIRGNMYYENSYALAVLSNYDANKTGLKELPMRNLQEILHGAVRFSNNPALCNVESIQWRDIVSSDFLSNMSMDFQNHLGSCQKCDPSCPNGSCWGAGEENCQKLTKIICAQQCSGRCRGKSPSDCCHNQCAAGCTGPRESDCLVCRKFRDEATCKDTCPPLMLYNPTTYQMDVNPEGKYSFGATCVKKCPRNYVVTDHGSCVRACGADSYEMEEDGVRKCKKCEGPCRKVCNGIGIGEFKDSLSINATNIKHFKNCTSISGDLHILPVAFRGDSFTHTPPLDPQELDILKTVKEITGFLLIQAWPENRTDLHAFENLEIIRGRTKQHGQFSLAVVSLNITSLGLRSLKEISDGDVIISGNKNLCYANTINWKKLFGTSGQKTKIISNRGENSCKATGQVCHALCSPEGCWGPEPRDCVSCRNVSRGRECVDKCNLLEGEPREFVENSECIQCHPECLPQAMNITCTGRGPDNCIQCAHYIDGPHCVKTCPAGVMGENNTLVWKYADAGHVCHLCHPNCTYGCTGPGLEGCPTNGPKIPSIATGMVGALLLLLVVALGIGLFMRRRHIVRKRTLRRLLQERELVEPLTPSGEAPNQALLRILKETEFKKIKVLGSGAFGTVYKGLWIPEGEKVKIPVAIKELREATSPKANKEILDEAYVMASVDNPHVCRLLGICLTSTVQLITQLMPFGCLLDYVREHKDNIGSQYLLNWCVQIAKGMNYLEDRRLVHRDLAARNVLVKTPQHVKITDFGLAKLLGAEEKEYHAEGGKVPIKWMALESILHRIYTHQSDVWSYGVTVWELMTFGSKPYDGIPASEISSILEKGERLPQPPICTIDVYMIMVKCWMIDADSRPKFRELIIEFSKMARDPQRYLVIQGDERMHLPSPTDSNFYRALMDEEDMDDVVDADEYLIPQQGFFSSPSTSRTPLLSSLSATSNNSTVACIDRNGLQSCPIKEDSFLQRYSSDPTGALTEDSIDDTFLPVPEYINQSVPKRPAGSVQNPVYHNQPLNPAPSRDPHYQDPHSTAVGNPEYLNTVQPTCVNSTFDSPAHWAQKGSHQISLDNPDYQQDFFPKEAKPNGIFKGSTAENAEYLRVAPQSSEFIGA
wtEGFR, sequence (P00533 25-1210): as above
ERBB2-A775_G776insYVMA, sequence (P04626 other isoform, or with tags, fused parts or gaps del 1-675/ins YVMA behind 775 limits assumed): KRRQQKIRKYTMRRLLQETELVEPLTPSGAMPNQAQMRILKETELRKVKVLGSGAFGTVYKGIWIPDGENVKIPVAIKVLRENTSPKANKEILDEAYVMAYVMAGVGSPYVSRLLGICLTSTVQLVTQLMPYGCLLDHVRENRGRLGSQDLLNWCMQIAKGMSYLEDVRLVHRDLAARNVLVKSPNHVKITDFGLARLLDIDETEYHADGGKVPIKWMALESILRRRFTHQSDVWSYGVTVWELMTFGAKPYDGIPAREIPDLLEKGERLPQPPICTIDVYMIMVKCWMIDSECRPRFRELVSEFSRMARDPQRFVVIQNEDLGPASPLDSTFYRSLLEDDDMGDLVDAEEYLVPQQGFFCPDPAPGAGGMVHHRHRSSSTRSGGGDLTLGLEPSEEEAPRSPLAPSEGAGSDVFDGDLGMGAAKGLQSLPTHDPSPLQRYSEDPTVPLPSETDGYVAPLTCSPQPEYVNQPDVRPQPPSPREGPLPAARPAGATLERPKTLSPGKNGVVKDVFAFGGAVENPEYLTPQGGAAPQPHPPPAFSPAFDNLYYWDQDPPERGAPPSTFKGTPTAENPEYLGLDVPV

Compound: C=CC(=O)N1CCN(c2ccn3ncnc(Nc4ccc(Oc5ccn6ncnc6c5)c(C)c4)c23)CC1 [Compound 3, 1-(4-(4-((4-([1,2,4]triazolo[1,5-a]pyridin-7-yloxy)-3-methylphenyl)amino)pyrrolo[2,1-f][1,2,4]triazin-5-yl)piperazin-1-yl)prop-2-en-1-one]
IC50 (wtERBB2): < 200 nM
IC50 (wtEGFR): < 200 nM
IC50 (ERBB2-A775_G776insYVMA): < 200 nM

Compound: C=CC(=O)N1CCC(c2ccn3ncnc(Nc4ccc(Oc5ccn6ncnc6c5)c(C)c4)c23)CC1 [Compound 4, 1-(4-(4-((4-([1,2,4]triazolo[1,5-a]pyridin-7-yloxy)-3-methylphenyl)amino)pyrrolo[2,1-f][1,2,4]triazin-5-yl)piperidin-1-yl)prop-2-en-1-one]
IC50 (wtERBB2): < 200 nM
IC50 (wtEGFR): < 200 nM
IC50 (ERBB2-A775_G776insYVMA): < 200 nM

Compound: C=CC(=O)N1CC(c2ccn(-c3ccn4ncnc(Nc5ccc(Oc6ccn7ncnc7c6)c(C)c5)c34)n2)C1 [Compound 8, 1-(3-(1-(4-((4-([1,2,4]triazolo[1,5-a]pyridin-7-yloxy)-3-methylphenyl)amino)pyrrolo[2,1-f][1,2,4]triazin-5-yl)-1H-pyrazol-3-yl)azetidin-1-yl)prop-2-en-1-one]
IC50 (wtERBB2): < 200 nM
IC50 (wtEGFR): < 200 nM
IC50 (ERBB2-A775_G776insYVMA): < 200 nM

Compound: Cc1noc2ccc(C(=O)Nc3ccc4[nH]c(CN5CCCC5)nc4c3)cc12 [ELVN-002]
EGFR kinact (s − 1) (EGFR): 1.1 × 10^−2 s − 1
HER2 vs. EGFR Kinetic Selectivity (EGFR): 47
Ki (EGFR): 680 nM

Compound: C=CC(=O)N1CCC(Oc2cc3c(Nc4ccc(Cl)c(Cl)c4F)ncnc3cc2OC)CC1 [Poziotinib]
Kp at 4 h (in vivo): 0.36

Compound: CCOc1cc2ncnc(Nc3ccc(Oc4ccn5ncnc5c4)c(C)c3)c2cc1NC(=O)/C(F)=C/[C@H]1CCCN1C [SPH5030]
TR compared with Compound 5 [1]: significantly less TR than Compound 5

Compound: Cc1cc(Nc2ncnc3ccc(NC4=NC(C)(C)CO4)cc23)ccc1Oc1ccn2ncnc2c1 [Tucatinib]
antitumor effect in intracranial model, in words ([2]; NCI-N87-luc intracranial xenograft): only modest single agent effect
Tumor Growth Inhibition ([2]; Day 5): 9%
Tumor Growth Inhibition ([2]; Day 9): −11%
Tumor Growth Inhibition ([2]; Day 13): −14%
Tumor Growth Inhibition ([2]; Day 16): 18%
Tumor Growth Inhibition ([2]; Day 19): 45%
Tumor Growth Inhibition ([2]; Day 23): 25%
Tumor Growth Inhibition ([2]; Day 26): 30%
TGI (tumor growth inhibition) (HCC1954; HCC1954, 100 mg/kg PO daily for 21 days): 30%
anti-tumor effect (HCC1954; HCC1954, comparator): tumor stasis
anti-tumor effect (FIG. 29) (HCC1954; HCC1954 xenograft, Compound 5 100 and 250 mg/kg, tucatinib 100 mg/kg): did not achieve tumor stasis
TGI (tumor growth inhibition) (MDAMB453): 90%
TR compared with Compound 5 [1]: significantly less TR than Compound 5
anti-tumor activity, in words (KYSE410): ineffective; also recorded: weak or no activity; also recorded: weak/no activity
TGI (tumor growth inhibition) (BaF3 P95Her2): 99%

Compound: Cc1nc(NC(=O)N2CCC[C@H]2C(N)=O)sc1-c1ccnc(C(C)(C)C(F)(F)F)c1 [alpilisib]
TGI (JIMT-1): 64%

Now from value to compound:

IC50 (wtERBB2): < 200 nM
IC50 (wtEGFR): < 200 nM
IC50 (ERBB2-A775_G776insYVMA): < 200 nM
Compound: Cc1cc(Nc2ncnn3ccc(C4CN(C(=O)/C=C/CN(C)C)C4)c23)ccc1Oc1ccn2ncnc2c1 [Compound 1, (E)-1-(3-(4-((4-([1,2,4]triazolo[1,5-a]pyridin-7-yloxy)-3-methylphenyl)amino)pyrrolo[2,1-f][1,2,4]triazin-5-yl)azetidin-1-yl)-4-(dimethylamino)but-2-en-1-one]

IC50 (wtERBB2): < 200 nM
IC50 (ERBB2-A775_G776insYVMA): < 200 nM
Compound: Cc1cc(Nc2ncnn3ccc(C4CCCN(C(=O)/C=C/CN(C)C)CC4)c23)ccc1Oc1ccn2ncnc2c1 (centres unmarked) [Compound 12, (E)-1-(4-(4-((4-([1,2,4]triazolo[1,5-a]pyridin-7-yloxy)-3-methylphenyl)amino)pyrrolo[2,1-f][1,2,4]triazin-5-yl)azepan-1-yl)-4-(dimethylamino)but-2-en-1-one]

IC50 (wtERBB2): < 200 nM
IC50 (ERBB2-A775_G776insYVMA): < 200 nM
Compound: Cc1cc(Nc2ncnn3ccc(C4CC5(C4)CN(C(=O)/C=C/CN(C)C)C5)c23)ccc1Oc1ccn2ncnc2c1 [Compound 13, (E)-1-(6-(4-((4-([1,2,4]triazolo[1,5-a]pyridin-7-yloxy)-3-methylphenyl)amino)pyrrolo[2,1-f][1,2,4]triazin-5-yl)-2-azaspiro[3.3]heptan-2-yl)-4-(dimethylamino)but-2-en-1-one]

IC50 (wtERBB2): < 200 nM
Compound: Cc1cc(Nc2ncnn3ccc(-c4cnn(CCNC(=O)/C=C/CN(C)C)c4)c23)ccc1Oc1ccn2ncnc2c1 [Compound 14, (E)-N-(2-(4-(4-((4-([1,2,4]triazolo[1,5-a]pyridin-7-yloxy)-3-methylphenyl)amino)pyrrolo[2,1-f][1,2,4]triazin-5-yl)-1H-pyrazol-1-yl)ethyl)-4-(dimethylamino)but-2-enamide]
